#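 The compound was tested at five concentrations on cells cultured in 96-well plates, with a 48-hour exposure period. Here, GI50 denotes the concentration required for 50% inhibition of growth. TGI is the concentration that stops growth completely.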
# What was measured:
# Experiment in all cases: NCI tumour cell line growth inhibition, 48 h
# OVCAR-5 ovarian = tested on: OVCAR-5 ovarian
# HOP-62 NSCLC = tested on: HOP-62 NSCLC
# MDA-MB-231 breast = tested on: MDA-MB-231 breast
# NCI-H23 lung = tested on: NCI-H23 lung
# BT-549 breast = tested on: BT-549 breast
# SF-539 CNS = tested on: SF-539 CNS
# LOX IMVI melanoma = tested on: LOX IMVI melanoma
# MALME-3M melanoma = tested on: MALME-3M melanoma
# SK-OV-3 ovarian = tested on: SK-OV-3 ovarian
# SK-MEL-28 melanoma = tested on: SK-MEL-28 melanoma
# IGROV1 ovarian = tested on: IGROV1 ovarian
# SF-295 CNS = tested on: SF-295 CNS
# NCI-H522 lung = tested on: NCI-H522 lung
# SK-MEL-2 melanoma = tested on: SK-MEL-2 melanoma
# NCI/ADR-RES ovarian = tested on: NCI/ADR-RES ovarian
# ACHN renal = tested on: ACHN renal
# MDA-MB-435 = tested on: MDA-MB-435
# SR leukemia = tested on: SR leukemia
# OVCAR-8 ovarian = tested on: OVCAR-8 ovarian
# SF-268 CNS = tested on: SF-268 CNS
# HOP-92 NSCLC = tested on: HOP-92 NSCLC
# TK-10 renal = tested on: TK-10 renal
# UACC-62 melanoma = tested on: UACC-62 melanoma
# HCC-2998 colon = tested on: HCC-2998 colon
# RPMI-8226 leukemia = tested on: RPMI-8226 leukemia
# M14 melanoma = tested on: M14 melanoma
# SN12C renal = tested on: SN12C renal
# NCI-H460 lung = tested on: NCI-H460 lung
# T-47D breast = tested on: T-47D breast
# U251 CNS = tested on: U251 CNS
# CAKI-1 renal = tested on: CAKI-1 renal
# A549 NSCLC = tested on: A549 NSCLC
# HL-60(TB) leukemia = tested on: HL-60(TB) leukemia
# HT29 colon = tested on: HT29 colon
# EKVX NSCLC = tested on: EKVX NSCLC
# SNB-19 CNS = tested on: SNB-19 CNS
# SK-MEL-5 melanoma = tested on: SK-MEL-5 melanoma
# KM12 colon = tested on: KM12 colon
# 786-0 renal = tested on: 786-0 renal
# MCF7 breast = tested on: MCF7 breast
# UACC-257 melanoma = tested on: UACC-257 melanoma
# UO-31 renal = tested on: UO-31 renal
# PC-3 prostate = tested on: PC-3 prostate
# HCT-15 colon = tested on: HCT-15 colon
# COLO 205 colon = tested on: COLO 205 colon
# SNB-75 CNS = tested on: SNB-75 CNS
# RXF 393 renal = tested on: RXF 393 renal
# MOLT-4 leukemia = tested on: MOLT-4 leukemia
# OVCAR-3 ovarian = tested on: OVCAR-3 ovarian
# OVCAR-4 ovarian = tested on: OVCAR-4 ovarian
# CCRF-CEM leukemia = tested on: CCRF-CEM leukemia
# A498 renal = tested on: A498 renal
# SW-620 colon = tested on: SW-620 colon
# NCI-H226 lung = tested on: NCI-H226 lung
# HCT-116 colon = tested on: HCT-116 colon
# HS 578T breast = tested on: HS 578T breast
# K-562 leukemia = tested on: K-562 leukemia
# DU-145 prostate = tested on: DU-145 prostate
smiles,measurement,setting,value
COc1ccc(-c2nc3sccn3c2-c2ccnc(NCCCNS(=O)(=O)c3ccc(F)cc3)n2)cc1,GI50,OVCAR-5 ovarian,4.59 µM
same,TGI,OVCAR-5 ovarian,> 100 µM
same,GI50,HOP-62 NSCLC,4.15 µM
same,TGI,HOP-62 NSCLC,23.7 µM
same,GI50,MDA-MB-231 breast,4.18 µM
same,TGI,MDA-MB-231 breast,> 100 µM
same,GI50,NCI-H23 lung,2.11 µM
same,TGI,NCI-H23 lung,5.5 µM
same,GI50,BT-549 breast,2.19 µM
same,TGI,BT-549 breast,8.27 µM
same,GI50,SF-539 CNS,2.91 µM
same,TGI,SF-539 CNS,8.67 µM
same,GI50,LOX IMVI melanoma,1.91 µM
same,TGI,LOX IMVI melanoma,5.82 µM
same,GI50,MALME-3M melanoma,2.6 µM
same,TGI,MALME-3M melanoma,7.86 µM
same,GI50,SK-OV-3 ovarian,3.93 µM
same,TGI,SK-OV-3 ovarian,> 100 µM
same,GI50,SK-MEL-28 melanoma,2.29 µM
same,TGI,SK-MEL-28 melanoma,6.86 µM
same,GI50,IGROV1 ovarian,3.27 µM
same,TGI,IGROV1 ovarian,> 100 µM
same,GI50,SF-295 CNS,2.8 µM
same,TGI,SF-295 CNS,8.55 µM
same,GI50,NCI-H522 lung,1.41 µM
same,TGI,NCI-H522 lung,6.34 µM
same,GI50,SK-MEL-2 melanoma,2.32 µM
same,TGI,SK-MEL-2 melanoma,6.75 µM
same,GI50,NCI/ADR-RES ovarian,1.98 µM
same,TGI,NCI/ADR-RES ovarian,6.16 µM
same,GI50,ACHN renal,1.99 µM
same,TGI,ACHN renal,7.73 µM
same,GI50,MDA-MB-435,2 µM
same,TGI,MDA-MB-435,6.51 µM
same,GI50,SR leukemia,3.17 µM
same,TGI,SR leukemia,> 100 µM
same,GI50,OVCAR-8 ovarian,1.57 µM
same,TGI,OVCAR-8 ovarian,> 100 µM
same,GI50,SF-268 CNS,3.05 µM
same,TGI,SF-268 CNS,48.3 µM
same,GI50,HOP-92 NSCLC,1.75 µM
same,TGI,HOP-92 NSCLC,> 100 µM
same,GI50,TK-10 renal,3.92 µM
same,TGI,TK-10 renal,> 100 µM
same,GI50,UACC-62 melanoma,0.752 µM
same,TGI,UACC-62 melanoma,2.73 µM
same,GI50,HCC-2998 colon,5.11 µM
same,TGI,HCC-2998 colon,57.2 µM
same,GI50,RPMI-8226 leukemia,1.6 µM
same,TGI,RPMI-8226 leukemia,5.37 µM
same,GI50,M14 melanoma,2.54 µM
same,TGI,M14 melanoma,10.2 µM
same,GI50,SN12C renal,2.74 µM
same,TGI,SN12C renal,> 100 µM
same,GI50,NCI-H460 lung,2.78 µM
same,TGI,NCI-H460 lung,37.6 µM
same,GI50,T-47D breast,0.866 µM
same,TGI,T-47D breast,4.87 µM
same,GI50,U251 CNS,3.7 µM
same,TGI,U251 CNS,> 100 µM
same,GI50,CAKI-1 renal,2.5 µM
same,TGI,CAKI-1 renal,7.29 µM
same,GI50,A549 NSCLC,2.94 µM
same,TGI,A549 NSCLC,> 100 µM
same,GI50,HL-60(TB) leukemia,2.64 µM
same,TGI,HL-60(TB) leukemia,9.22 µM
same,GI50,HT29 colon,2.16 µM
same,TGI,HT29 colon,> 100 µM
same,GI50,EKVX NSCLC,3.12 µM
same,TGI,EKVX NSCLC,> 100 µM
same,GI50,SNB-19 CNS,4.43 µM
same,TGI,SNB-19 CNS,> 100 µM
same,GI50,SK-MEL-5 melanoma,1.06 µM
same,TGI,SK-MEL-5 melanoma,2.28 µM
same,GI50,KM12 colon,2.57 µM
same,TGI,KM12 colon,9.24 µM
same,GI50,786-0 renal,5.13 µM
same,TGI,786-0 renal,> 100 µM
same,GI50,MCF7 breast,2.48 µM
same,TGI,MCF7 breast,8.66 µM
same,GI50,UACC-257 melanoma,2.85 µM
same,TGI,UACC-257 melanoma,> 100 µM
same,GI50,UO-31 renal,1.85 µM
same,TGI,UO-31 renal,5.17 µM
same,GI50,PC-3 prostate,1.74 µM
same,TGI,PC-3 prostate,6.75 µM
same,GI50,HCT-15 colon,2.4 µM
same,TGI,HCT-15 colon,10.6 µM
same,GI50,COLO 205 colon,1.89 µM
same,TGI,COLO 205 colon,8.15 µM
same,GI50,SNB-75 CNS,2.25 µM
same,TGI,SNB-75 CNS,6.04 µM
same,GI50,RXF 393 renal,3.13 µM
same,TGI,RXF 393 renal,13.1 µM
same,GI50,MOLT-4 leukemia,1.9 µM
same,TGI,MOLT-4 leukemia,7.67 µM
same,GI50,OVCAR-3 ovarian,2.96 µM
same,TGI,OVCAR-3 ovarian,48.7 µM
same,GI50,OVCAR-4 ovarian,2.49 µM
same,TGI,OVCAR-4 ovarian,8.4 µM
same,GI50,CCRF-CEM leukemia,1.52 µM
same,TGI,CCRF-CEM leukemia,> 100 µM
same,GI50,A498 renal,2.6 µM
same,TGI,A498 renal,> 100 µM
same,GI50,SW-620 colon,3.87 µM
same,TGI,SW-620 colon,44.4 µM
same,GI50,NCI-H226 lung,1.59 µM
same,TGI,NCI-H226 lung,5.28 µM
same,GI50,HCT-116 colon,3.19 µM
same,TGI,HCT-116 colon,24.4 µM
same,GI50,HS 578T breast,3.22 µM
same,TGI,HS 578T breast,9.03 µM
same,GI50,K-562 leukemia,1.43 µM
same,TGI,K-562 leukemia,> 100 µM
same,GI50,DU-145 prostate,3.02 µM
same,TGI,DU-145 prostate,> 100 µM

# From PubChem BioAssay (NCI)
